From patent publication US20230393140A1, “BINDING ASSAYS INVOLVING A PLURALITY OF SYNTHETIC COMPOUNDS, TARGETS, AND COUNTER TARGETS” (SRI International, priority 2020, published 2023) come the findings set out here.

Where two headings read alike, the source gives them in different places. Marks after values point to notes of the source that are not given here. Numbered stars: 1 amine (or outer) side, 2 acyl side, 3 side chain; on linkers, the order of the positions; unused ones are H or OH. Square brackets hold non-standard residues; d marks the D form. Peptide text beside a SMILES is read from it. * marks the point of attachment. 5FAM = O=C1OC2(c3ccc(O)cc3Oc3cc(O)ccc32)c2ccc(C(=O)*)cc21; NHCH2C6H4(4-CH2CONH2) = NC(=O)Cc1ccc(CN*)cc1; X1 = O=C(Cc1ccc(CN[*:1])cc1)[*:2]

Experiment [1] addresses T1, K-Ras (Homo sapiens, UniProt P01116, G12V).
T1 construct: purchased Cytoskeleton Inc. CS-RS04
The experiment is described as follows: MST binding affinity of resynthesized NNP hits to K-Ras. Here is the method:
Loading was performed according to the following protocol: The 200 μM stock solution of the target protein was diluted to 10 μM in 20 mM HEPES pH 8.0, 150 mM NaCl, 10 mM MgCl2, 1 mM TCEP, 0.05% Tween-20 (total volume 110 μL). 10 μL were set aside for later labeling quality control. EDTA pH 8.0 (stock concentration 10 mM) was added to the protein solution to a final concentration of 80 μM. GTP (stock concentration 50 mM) was added to the protein solution to a final concentration of 750 μM. The solution was incubated at 30° C. for 2 hours (PCR tube) and then placed on ice for 2 minutes. MgCl2 was added to the protein solution to a final concentration of 100 mM. The resulting protein solution was buffer exchanged into the buffer required in the labeling kit for labeling. […] All the other target molecules (TNFα, IL-6, IL-6R and ASGPR) were used as received without any additional treatment.
Hit binding affinity to various targets were determined using Microscale Thermophoresis (MST). MST experiments were performed on a Monolith NT.115pico (NanoTemper Technologies GmbH, Munich, Germany). Measurements were performed at room temperature, in triplicate with incubation periods of 15, 30 and 45 minutes. […] Targets were labeled using Nanotemper Monolith 2nd Generation Protein Labeling Kits. RED-MALEIMIDE (Maleimide-647-dye) labeling kit was used for K-Ras and RED-NHS (NHS-647-dye) labeling kit was used for IL-6, IL-6R, TNFα and ASGPR. The buffer for the ASGPR contained 20 mM HEPES pH 7.4, 150 mM NaCl, 10 mM MgCl2, 2 mM CaCl2, 0.05% Pluronic F-127, and 1 mM DTT; for IL-6 contained 20 mM HEPES pH 7.4, 150 mM KCl, 10 mM MgCl2, and 0.1% Pluronic F-127; for the soluble IL-6 receptor 20 mM HEPES pH 7.4, 150 mM NaCl, 10 mM MgCl2, and 0.05% Tween-20; for K-Ras 20 mM HEPES pH 7.4, 150 mM NaCl, 10 mM MgCl2, 0.05% Tween-20 and 1 mM DTT; for TNFα 10 mM HEPES pH 7.4, 150 mM NaCl, 10 mM MgCl2, 0.05% Polysorbate-20. Triplicate data was analyzed using MO.AffinityAnalysis software (NanoTemper Technologies GmbH).

Experiment [2] addresses T2, cRaf/K-Ras (G12V) PPI (Homo sapiens, UniProt P01116, G12V).
T2 construct: b-Kras G12V (GppNHp) (aa 2-169); biotin (b-
The experiment is described as follows: K-Ras-cRaf HTRF-based PPI profiling.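 On blank corrected HTRF: background is the signal of wells with all components except cRaf.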 Format: biochemical. The following applies: for blank corrected HTRF: raw data, compounds without fluorescein. Here is the method: In some experimental embodiments, a buffer was added to the assay wells which included […] HEPES pH 7.4, 150 mM NaCl, 5 mM MgCl2, 1 mM DTT, 0.005% NP40, and 1% DMSO. 5 uL of 3×K-Ras protein was then added to the assay wells, followed by the synthetic compounds which were added using acoustic technology (ECHO, Labcyte) followed by thirty minutes incubation at room temperature. Afterwards, 5 uL of 3×cRaf protein was added to the assay wells and 5 uL of detection mix was then added to the assay wells after 30 minutes. The detection mix included Mab anti-GST-Tb cryptate (Cisbio 61GSTTLB) and streptavidin-XL665 (Ex/Em=(337/665; 620) in PHERAstar (BMG Labtech)). HTRF signal was measured […] later.
The data includes raw data (signal-background without cRaf protein but with all other component), % binding (relative to DMSO controls), and curve fits. Curve fits were performed when the activities at the highest concentration of the synthetic compounds were less than 65%. Tables 18A-18B below includes the raw data (e.g., blank corrected HTRF) and Tables 19A-19B includes the % binding.
On the technique in general: Time-resolved FRET reads energy transfer from a long-lived donor to a nearby acceptor.

Experiment [3] relates to biotinylated GST. The experiment is described as follows: Interference check with biotinylated GST and detection mix. An excerpt:
Table 20 below provides an interference check on the synthetic compounds using biotinylated GST, which was used with the detection mix to check for compound effect on fluorescence.

Take `CC(C)C[C@H](NC(=O)[C@@H](CCC(=O)O)NC(=O)[C@@H](CCCNC(=N)N)NC(=O)[C@@H](CO)NC(=O)[C@H](NC(=O)Cc1ccc(CNC(=O)[C@H](C)NC(=O)[C@@H](CO)NC(=O)CNC(=O)[C@@H](CO)NC(=O)[C@H]2CCCN2C(=O)Cc2ccc(CNC(=O)[C@H](Cc3ccccc3)NC(=O)[C@@H](CCC(=O)O)NC(=O)[C@@H](Cc3c[nH]cn3)NC(=O)[C@H]3CCCN3C(=O)[C@@H](CO)NC(=O)c3ccc4c(c3)C(=O)OC43c4ccc(O)cc4Oc4cc(O)ccc43)cc2)cc1)[C@H](C)O)C(=O)NCc1ccc(CC(=O)N2CCC[C@@H]2C(=O)N[C@H](CCCCN)C(=O)N[C@H](Cc2ccc(O)cc2)C(=O)N[C@H](CCCNC(=N)N)C(=O)N[C@@H](Cc2ccccc2)C(=O)NCc2ccc(CC(=O)N[C@H](CCCNC(=N)N)C(=O)N[C@H](Cc3ccc(O)cc3)C(=O)N[C@@H](C(=O)N[C@H](CCC(=O)O)C(=O)N[C@@H](C)C(=O)NCc3ccc(CC(=O)NCC(=O)N[C@H](Cc4c[nH]c5ccccc45)C(=O)N[C@H](Cc4c[nH]cn4)C(=O)N[C@H](CCCNC(=N)N)C(=O)N[C@@H](C)C(=O)NCc4ccc(CC(N)=O)cc4)cc3)[C@H](C)O)cc2)cc1` [KRAS-1-6] (5FAM-[dS][dP][dH][dE]F[X1][dP][dS]G[dS]A[X1][dT][dS][dR][dE]L[X1][dP][dK][dY][dR]F[X1][dR][dY][dT][dE]A[X1]G[dW][dH][dR]A-{NHCH2C6H4(4-CH2CONH2)}): the Kd in experiment [1] (K-Ras, compound with fluorescein on N-term, read-out: KD[nM] in MST (with fluorescein on N-term)) was determined as 21 nM; in experiment [1] (read-out: KD (nM) [95% conf. int], MST, NNP1 library hit, target K-Ras, one-site binding model) it was 21 nM. In experiment [2] (curve fit of % binding, K-Ras G12V 30 nM, GST-cRaf 10 nM), this compound displayed a HillSlope of −0.8822. In addition, the “blank corrected HTRF” value in experiment [2] (conc. 1.00E−05) amounted to 3880; in experiment [2] (conc. 1.11E−06), 9200; in experiment [2] (conc. 1.23E−07), 13441; in experiment [2] (conc. 1.52E−09), 13652; in experiment [2] (conc. 3.33E−06) it was 5253; in experiment [2] (conc. 3.70E−07) it was 11760. The “blank corrected HTRF” value in experiment [2] (conc. 4.12E−08) is reported as 13672. In addition, the “% signal compared to DMSO” value is 103.1% in experiment [3] (assay conc. 0.000508053 μM); 102.7% in experiment [3] (assay conc. 0.001524158 μM); 102.4% in experiment [3] (assay conc. 0.004572474 μM); 102.5% in experiment [3] (assay conc. 0.013717421 μM); 102.9% in experiment [3] (assay conc. 0.041152263 μM); 100.3% in experiment [3] (assay conc. 0.12345679 μM). Further, the “% signal compared to DMSO” value in experiment [3] (assay conc. 0.37037037 μM) was 100.7%; in experiment [3] (assay conc. 1.111111111 μM), 89.85%; in experiment [3] (assay conc. 3.333333333 μM) it was 74.45%; in experiment [3] (assay conc. 19 μM), 62.03* %.

The term Kd denotes the concentration at which binding is half-saturated.
